{"source": "paper PMC5766608", "about": "“Target engagement imaging of PARP inhibitors in small-cell lung cancer” (Nature Communications, 2018)", "key": {"[1]": {"tested_on": "PARP1/2", "experiment": "Blocking of PARPi-FL uptake by PARP inhibitors (confocal microscopy, flow cytometry)", "assay_type": "cell-based, human", "conditions": "JHU-LX22 cells", "procedure": "(§1) Cells were then treated with fluorescent imaging agent PARPi-FL and either imaged via confocal microscopy or measured via flow cytometry. […] Then, cells were trypsinized, subjected to flow cytometry and analyzed for the relative PARPi-FL fluorescence signal. […] Error bars represent the SD of three independent experiments with three parallels each\nWe conducted confocal laser scanning microscopy to visualize the extent of intracellular blocking of PARPi-FL uptake by different PARPi. […] PARPi-FL was removed and cells were washed in fresh medium for 10 min. Next, cells were treated with 4% Paraformaldehyde (PFA) for 8 min on ice to ensure fixation. […] PARPi-FL intensity was determined by measuring the PARPi-FL fluorescence intensity in all nuclei, which were thresholded using Hoechst staining.\n(§2) After the respective treatment/staining, which is described below for the different experiments, cells were washed in PBS, trypsinized, washed with flow buffer (1% BSA (w/v) in PBS), transferred to 5 mL flow cytometry tubes through the 40 µm cell strainer cap and left on ice until measurement in the flow cytometer (Fortessa II). Raw data were processed in FlowJo software in order to calculate PARPi-FL uptake per cell. Dead cells were excluded by eliminating DAPI positive cells from the analysis (Supplementary Fig. 8). Cell clumps and debris were eliminated using the corresponding gates (forward and side scatter) for the unstained cell population. PARPi-FL fluorescence was imaged in the FITC channel against side scatter (area).\nControls (cells incubated with medium instead of a PARP inhibitor) served as reference value and their PARPi-FL signal was defined as 100%.\nTo quantify the extent of blocking of PARPi-FL uptake by different PARPi, we quantified the intracellular PARPi-FL uptake in JHU-LX22 cells after incubation with PARP inhibitors."}, "[2]": {"biological_target": "T1, TNKS1 (Homo sapiens, UniProt O95271)", "T1 construct": "purchased BPS Bioscience, San Diego, CA", "T1 sequence (O95271 1-1327)": "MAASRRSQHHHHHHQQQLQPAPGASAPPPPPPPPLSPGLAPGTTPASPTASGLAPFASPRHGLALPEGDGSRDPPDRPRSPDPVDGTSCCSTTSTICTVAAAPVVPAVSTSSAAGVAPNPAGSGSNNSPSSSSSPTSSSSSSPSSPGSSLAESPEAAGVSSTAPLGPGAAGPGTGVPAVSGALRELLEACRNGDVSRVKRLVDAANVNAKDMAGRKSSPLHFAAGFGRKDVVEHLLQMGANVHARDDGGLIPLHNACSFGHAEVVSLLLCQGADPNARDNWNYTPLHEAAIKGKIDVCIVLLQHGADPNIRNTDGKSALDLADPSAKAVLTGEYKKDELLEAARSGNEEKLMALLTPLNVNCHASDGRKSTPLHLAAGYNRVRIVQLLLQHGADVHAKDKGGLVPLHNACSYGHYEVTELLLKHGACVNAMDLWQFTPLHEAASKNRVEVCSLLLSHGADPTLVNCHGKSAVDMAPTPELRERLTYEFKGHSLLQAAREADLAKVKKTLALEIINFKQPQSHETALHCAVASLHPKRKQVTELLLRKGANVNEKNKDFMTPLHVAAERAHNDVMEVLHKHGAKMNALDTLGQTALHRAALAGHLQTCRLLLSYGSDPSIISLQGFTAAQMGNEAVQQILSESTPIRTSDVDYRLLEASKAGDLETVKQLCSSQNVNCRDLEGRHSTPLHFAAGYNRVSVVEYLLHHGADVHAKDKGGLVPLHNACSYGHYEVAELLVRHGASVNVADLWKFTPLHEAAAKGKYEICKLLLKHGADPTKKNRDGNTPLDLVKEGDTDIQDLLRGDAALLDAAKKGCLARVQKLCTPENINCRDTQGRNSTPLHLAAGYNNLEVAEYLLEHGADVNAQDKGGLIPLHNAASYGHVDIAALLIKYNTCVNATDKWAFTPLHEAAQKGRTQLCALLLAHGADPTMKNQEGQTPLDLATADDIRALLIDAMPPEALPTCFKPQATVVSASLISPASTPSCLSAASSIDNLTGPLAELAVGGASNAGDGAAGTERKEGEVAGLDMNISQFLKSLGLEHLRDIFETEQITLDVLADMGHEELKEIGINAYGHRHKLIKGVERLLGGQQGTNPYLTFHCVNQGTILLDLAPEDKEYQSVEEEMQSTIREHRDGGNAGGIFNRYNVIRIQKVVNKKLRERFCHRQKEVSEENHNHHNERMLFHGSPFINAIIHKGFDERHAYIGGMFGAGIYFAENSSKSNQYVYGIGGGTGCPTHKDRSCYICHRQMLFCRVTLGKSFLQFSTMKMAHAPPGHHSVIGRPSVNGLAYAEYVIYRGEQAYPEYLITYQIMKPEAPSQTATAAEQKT", "experiment": "PARP family enzyme activity inhibition screening (BPS Bioscience)", "assay_type": "biochemical", "conditions": "100 nM inhibitor", "procedure": "Fig. 1 Properties of PARP inhibitors. a Structures of 5 clinical therapeutic PARP inhibitors and the 2 PARP imaging agents. b Heatmap visualizing enzymatic activity screening of 10 small molecules against 12 PARP enzymes at 100 nM concentration (for additional concentrations, see Supplementary Fig. 1)\nAssay was performed by BPS Bioscience, San Diego, CA. 100 µM DMSO solutions of each inhibitor were provided, and the assay was conducted after dilution to 100, 50, or 10 nM. […] Data was reported by BPS as % Enzyme Activity. Triplicates were combined to get a mean ± SD, and these were grouped and plotted onto a heatmap using Prism 7.\nSupplementary Figure 1 | PARP enzyme family binding assays at additional concentrations.\nhistone substrate and biotin-labeled NAD+ at 100 nM (Fig. 1b), 50 nM (left) and 10 nM (right) for\neach inhibitor and each enzyme."}, "[3]": {"tested_on": "PARP1/2", "experiment": "In vitro binding kinetics by recovery of PARPi-FL binding (flow cytometry)", "assay_type": "cell-based, human", "conditions": "JHU-LX22 cells, 0.2 µM inhibitor 25 min, washed, 0-48 h post-incubation, two phase decay fit", "procedure": "as §1, §2\nWe furthermore determined the duration of PARPi binding to their target site. […] Then, cells were subjected to flow cytometry as described above. […] We determined the duration of binding of the PARPi indirectly by calculating the recovery of PARP-FL binding with increasing times between PARPi and PARPi-FL treatment. Decay curves were calculated with Prism using two phase decay least squares regression."}}, "data": [{"smiles": "O=C(c1ccc(F)cc1)N1CCN(C(=O)c2cc(Cc3n[nH]c(=O)c4ccccc34)ccc2F)CC1", "note": "[^19F-PARPi]", "values": [{"measurement": "Blocking of PARPi-FL uptake", "setting": "[1]; pretreatment with PARP inhibitor 25 min, then PARPi-FL 15 min", "value": "more than 50%"}, {"measurement": "Inhibition of TNKS1 enzyme activity", "setting": "[2]", "value": "≤ 5", "unit": "%"}, {"measurement": "Retention on PARP1/2 binding sites, in words", "setting": "[3]", "value": "longest retention"}]}, {"smiles": "Cn1ncnc1[C@H]1c2n[nH]c(=O)c3cc(F)cc(c23)N[C@@H]1c1ccc(F)cc1", "note": "[Talazoparib, (8S,9R)-5-Fluoro-8-(4-fluorophenyl)-9-(1-methyl-1H-1,2,4-triazol-5-yl)-2,7,8,9-tetrahydro-3H-pyrido[4,3,2-de]phthalazin-3-one]", "values": [{"measurement": "Blocking of PARPi-FL uptake / target engagement, in words", "setting": "[1]; pretreatment with inhibitor, then PARPi-FL", "value": "most complete target engagement"}, {"measurement": "Inhibition of TNKS1 enzyme activity", "setting": "[2]", "value": "exhibited inhibition"}, {"measurement": "Retention on PARP1/2 binding sites, in words", "setting": "[3]", "value": "longest retention"}]}, {"smiles": "CC1=CC(C)=[N+]2C1=Cc1ccc(CCC(=O)N3CCN(C(=O)c4cc(Cc5n[nH]c(=O)c6ccccc56)ccc4F)CC3)n1[B-]2(F)F", "note": "[PARPi-FL]", "values": [{"measurement": "inhibition at 0.1 µM", "setting": "[2]", "value": "≤ 5", "unit": "%"}]}]}
